The record followed here is patent US10173974B1, “Natural product-based synthesis of novel anti-infective isothiocyanate- and isoselenocyanate-functionalized amphilectane diterpenes” (priority 2015, dated 2019).

pIC50: −log10 of the molar value. ≈ marks a conversion by molar mass, not a printed value. Like-named read-outs stand apart in the source and are kept apart here.

In data set [1] the test system is Vero cell line ATCC CRL-1586.
For data set [2], the system named is P. falciparum Dd2 (drug resistant). Description: SYBR Green parasite proliferation assay, P. falciparum Dd2 strain. In kind it is cell-based, Plasmodium falciparum.
Data set [3] relates to P. falciparum 3D7 (chloroquine-sensitive). Description: SYBR Green parasite proliferation assay, P. falciparum 3D7 strain. Format: cell-based, Plasmodium falciparum.
Data set [4] deals with Mtb H37Rv (ATCC 27 294). Description: Microplate Alamar blue assay (MABA), antitubercular activity. Format: cell-based, Mycobacterium tuberculosis. The following applies: for MABA MIC: Mtb H37Rv.
A short description of data set [5]: in vitro. The following applies: African green monkey.
Setting [6] is: P. falciparum Dd2 (drug resistant), 72 h incubation, in vitro growth inhibition.
Setting [7] is: P. falciparum 3D7 (chloroquine-sensitive), 72 h incubation, in vitro growth inhibition.

“8-Isothiocyano-15-isoselenocyano-11(20)-amphilectene (3) and 8-Isoselenocyano-15-isothiocyano-11(20)-amphilectene (4) [Compound 3 and 4]”: the CC50 in data set [1] stood at 78100 nM.
As to `[C-]#[N+]C(C)(C)CC1CC(C)C2CCC(C)C3([N+]#[C-])CCC(=C)C1C23` (single isomer, unassigned; (-)) [Compound 1, (−)-8,15-diisocyano-11(20)-amphilectene, reference compound], the pIC50 is 8.51 in data set [2] (setting [6]) and 8.92 in data set [3] (setting [7]). For the same compound, the “MABA MIC” value in data set [4] stood at 9.8 µM.
For the compound `CCN(CC)CCCC(C)Nc1ccnc2cc(Cl)ccc12` (centres unmarked) [CQ, chloroquine, reference compound], the pIC50 in data set [2] (Plasmodium falciparum, P. falciparum Dd2 (drug resistant), 72 h incubation, in vitro growth inhibition) is 7.28; in data set [3] (Plasmodium falciparum, P. falciparum 3D7 (chloroquine-sensitive), 72 h incubation, in vitro growth inhibition) it was 7.96.
Consider `C=C1CC[C@@]2(N=C=S)[C@H]3[C@H](CC[C@@H]2C)[C@@H](C)C[C@@H](CC(C)(C)N=C=S)[C@H]13` [Compound 2, 8,15-Diisothiocyano-11(20)-amphilectene], for which the pIC50 in data set [2] (setting [6]) was 4.94; in data set [3] (setting [7]), 4.93. Also, the “MABA MIC” value in data set [4] was found to be 99.1 µM.
As to `C=C1CC[C@@]2(N=C=[Se])[C@H]3[C@H](CC[C@@H]2C)[C@@H](C)C[C@@H](CC(C)(C)N=C=[Se])[C@H]13` [Compound 5, 8,15-Diisoselenocyano-11(20)-amphilectene], the figures for the pIC50 in data set [2] (setting [6]) and in data set [3] (setting [7]) were 8.18 and 8.60, respectively. In data set [4], the “MABA MIC” value turned out to be 3.9 µM.
In the case of `C=C(C)C[C@@H]1C[C@H](C)[C@H]2CC[C@H](C)[C@@]3(N=C=[Se])CCC(=C)[C@@H]1[C@H]23` [Compound 6, 8-Isoselenocyanoamphilecta-11(20),15-diene], the pIC50 in data set [2] is 6.83; in data set [3], 6.72. Further, in data set [4], the “MABA MIC” value turned out to be 2.1 µM.
`CO[C@H]1/C=C/O[C@@]2(C)Oc3c(C)c(O)c4c(O)c(c(/C=N/N5CCN(C)CC5)c(O)c4c3C2=O)NC(=O)/C(C)=C\C=C\[C@H](C)[C@H](O)[C@@H](C)[C@@H](O)[C@@H](C)[C@H](OC(C)=O)[C@@H]1C` [RMP, rifampicin, reference compound]: in data set [5], the CC50 is greater than 100000 nM. In addition, the MIC in data set [4] (Mycobacterium tuberculosis, read-out: MABA MIC) turned out to be 0.09 µM (≈ 0.0741 µg/mL).
